Tests used:
[1] = molecular target: Recombinant human CD33 protein (Homo sapiens (Human), UniProt P20138); assay: CD33 competitive binding assay for HTS drug screen (fluorescent multivalent sialic acid probe)
Summary of the method: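 Inhibition was read as reduced retention of a fluorescent multivalent sialic acid complex (final 5 μM neutravidin, 15 μM A-375, 5 μM biotin-4-FITC) on plate-immobilized human CD33. Compound was added first, the probe followed for 30 min at room temperature in PBS with 0.2% Tween-20 and 0.5% BSA, and FITC was measured after a wash.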

[2] = molecular target: Recombinant Human Siglec-3/CD33 protein (His-CD33) (Homo sapiens (Human), UniProt P20138); assay: Differential scanning fluorimetry (DSF) thermal shift assay; assay type: binding; settings: thermal melt shift of 0.5 μM CD33 protein with 50 μM compound
Experimental: In the DSF assay, as the temperature increases, the protein gets gradually unfolded, exposing hydrophobic regions in which a fluorescent dye binds causing the fluorescence signal to increase. The midpoint of the unfolding transitions is called the thermal melt (Tm) or denaturation temperature and the Tm was defined as the peak apex in the derivative curve. Here, the Tm temperature of CD33 in the presence and absence of A-001 at a concentration of 50 μM was examined.
Recombinant Human Siglec-3/CD33 protein was purchased from Acros (catalog no. CD3-H5226) and reagents used in this study are shown in the Table 1 below.
Lyophilized CD33 protein was received in 1 mg aliquots from Acros. The protein was diluted with 2.5 mL of sterile water to a concentration of 400 μg/mL (14.5 μM), aliquoted into 138 μL aliquots and stored as at −20° C. On the day of analysis, the protein was thawed and […] solution was diluted to […] using buffer containing 133 mM NaCl, 133 mM phosphate buffered solution and 13.9× Sypro Orange dye in water in a quantity to cover the amount of samples tested on the day of the analysis.
200 μM stock solutions of A-001 containing 0.2% DMSO in water was supplied by compound management in a 384-well plate format.
Sample matrix were prepared by adding 7.5 μL of the protein buffer stock solution followed by addition of 2.5 μL of the 200 μM compound solutions in 384-well PCR plates to give a final volume of 10 μL per well consisting of 0.5 μM CD33 protein, 100 mM phosphate buffered solution pH 7.4, 100 mM NaCl, 10× SYPRO orange dye and 50 μM compound concentration (final DMSO concentration ˜0.2%). Using the Applied Biosystems® Protein Thermal Shift software (algorithm version 1.3.), the denaturation temperature or thermal melt (Tm) of the unbound and ligand bound CD33 protein was automatically assigned and the difference in thermal melt (ΔTm D) was calculated using the derivative curve by the Protein Thermal Shift software.
Recombinant human CD33 protein (0.5 μM) was incubated under buffered conditions in the presence of SYPRO orange dye, a temperature gradient was applied and a thermogram was produced by monitoring the fluorescence. The Tm was defined as the peak apex in the derivative curve in the study. […] Addition of […] of A-001 (Blue lines) to the CD33 protein induced significant Tm increases (ΔTm D) of 12.2±0.7° C.

Recombinant Human Siglec-3/CD33 protein (His-CD33), sequence (P20138 18-259): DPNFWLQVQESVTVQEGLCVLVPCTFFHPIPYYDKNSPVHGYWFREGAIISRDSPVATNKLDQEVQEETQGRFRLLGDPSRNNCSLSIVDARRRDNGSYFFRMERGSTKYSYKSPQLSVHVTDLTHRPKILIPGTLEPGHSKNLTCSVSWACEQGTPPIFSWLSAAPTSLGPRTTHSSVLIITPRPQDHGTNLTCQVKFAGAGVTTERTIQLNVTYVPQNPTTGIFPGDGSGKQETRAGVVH
Recombinant human CD33 protein, sequence (P20138 18-259): as above

SMILES: CC(=O)N[C@H]1[C@H]([C@H](O)[C@H](O)CNC(=O)c2cc(C)c(O)c(C)c2)O[C@@](CCN2CCOC[C@@]23CCN(C(=O)N[C@@H](C)c2ccccc2)C3)(C(=O)O)C[C@@H]1O [A-043]
- EC50 [1]: 13 nM
- DSF (dTmD) [2]: 13.2

SMILES: CC(=O)N[C@H]1[C@H]([C@H](O)[C@H](O)CNC(=O)c2cc(C)c(O)c(C)c2)O[C@@](CCN2CCOC[C@@]23CCN(C(=O)NC(C)C(F)(F)F)C3)(C(=O)O)C[C@@H]1O (stereo partly shown) [A-044]
- EC50 [1]: 19 nM
- DSF (dTmD) [2]: 11.5

SMILES: CC(=O)N[C@H]1[C@H]([C@H](O)[C@H](O)CNC(=O)c2cc(C)c(O)c(C)c2)O[C@@](CCN2CCOC[C@@]23CCN(C(=O)NC2CCCCC2)C3)(C(=O)O)C[C@@H]1O [A-045]
- EC50 [1]: 19 nM
- DSF (dTmD) [2]: 12.6

SMILES: CC(=O)N[C@H]1[C@H]([C@H](O)[C@H](O)CNC(=O)c2cc(C)c(O)c(C)c2)O[C@@](CCN2CCOC[C@@]23CCN(C(=O)N[C@H](C)c2ccccc2)C3)(C(=O)O)C[C@@H]1O [A-047]
- EC50 [1]: 22 nM
- DSF (dTmD) [2]: 12.9

SMILES: CC(=O)N[C@H]1[C@H]([C@H](O)[C@H](O)CNC(=O)c2cc(C)c(O)c(C)c2)O[C@@](CCN2CCOC[C@@]23CCN(C(=O)NC(C)C)C3)(C(=O)O)C[C@@H]1O [A-048]
- EC50 [1]: 24 nM
- DSF (dTmD) [2]: 12.5

SMILES: CC(=O)N[C@H]1[C@H]([C@H](O)[C@H](O)CNC(=O)c2cc(C)c(O)c(C)c2)O[C@@](CCN2CCOC[C@@]23CCN(C(=O)NC24CC5CC(CC(C5)C2)C4)C3)(C(=O)O)C[C@@H]1O [A-049]
- EC50 [1]: 41 nM
- DSF (dTmD) [2]: 13.5

SMILES: CC(=O)N[C@H]1[C@H]([C@H](O)[C@H](O)CNC(=O)c2cc(C)c(O)c(C)c2)O[C@@](CCN2CCOC[C@@]23CCN(C(=O)NC2CCC(F)(F)CC2)C3)(C(=O)O)C[C@@H]1O [A-051]
- EC50 [1]: 64 nM
- DSF (dTmD) [2]: 10.8

SMILES: CC(=O)N[C@H]1[C@H]([C@H](O)[C@H](O)CNC(=O)c2cc(C)c(O)c(C)c2)O[C@@](CCN2CCOC[C@@]23CCN(C(=S)NC2CCCCC2)C3)(C(=O)O)C[C@@H]1O [A-052]
- EC50 [1]: 66 nM
- DSF (dTmD) [2]: 9.9

SMILES: CC(=O)N[C@H]1[C@H]([C@H](O)[C@H](O)CNC(=O)c2cc(C)c(O)c(C)c2)O[C@@](CCN2CCOC[C@@]23CCN(C(=O)Nc2ccc(C)cc2)C3)(C(=O)O)C[C@@H]1O [A-053]
- EC50 [1]: 147 nM
- DSF (dTmD) [2]: 9.2

SMILES: CC(=O)N[C@H]1[C@H]([C@H](O)[C@H](O)CNC(=O)c2cc(C)c(O)c(C)c2)O[C@@](CCN2CCOC[C@@]23CCN(C(=O)NC2(c4ccc(F)cc4)CCCC2)C3)(C(=O)O)C[C@@H]1O [A-057]
- EC50 [1]: 265 nM
- DSF (dTmD) [2]: 9.7

SMILES: CC(=O)N[C@H]1[C@H]([C@H](O)[C@H](O)CNC(=O)c2cc(C)c(O)c(C)c2)O[C@@](CCN2CCOC[C@@]23CCN(C(=S)NC2CC2)C3)(C(=O)O)C[C@@H]1O [A-058]
- EC50 [1]: 1380 nM
- DSF (dTmD) [2]: 5.0

SMILES: CC(=O)N[C@H]1[C@H]([C@H](O)[C@H](O)CNC(=O)c2cc(C)c(O)c(C)c2)O[C@@](CCN2CCOC[C@@]23CCN(C(=O)N(C)c2ccccc2)C3)(C(=O)O)C[C@@H]1O [A-059]
- EC50 [1]: 60 nM
- DSF (dTmD) [2]: 9.3

SMILES: CC(=O)N[C@H]1[C@H]([C@H](O)[C@H](O)CNC(=O)c2cc(C)c(O)c(C)c2)O[C@@](CCN2CCOC[C@@]23CCN(C(=O)C2CCCC2)C3)(C(=O)O)C[C@@H]1O [A-060]
- EC50 [1]: 65 nM
- DSF (dTmD) [2]: 11.2

SMILES: CC(=O)N[C@H]1[C@H]([C@H](O)[C@H](O)CNC(=O)c2cc(C)c(O)c(C)c2)O[C@@](CCN2CCOC[C@@]23CCN(C(=O)N(C)C(C)C)C3)(C(=O)O)C[C@@H]1O [A-061]
- EC50 [1]: 235 nM
- DSF (dTmD) [2]: 7.5

SMILES: CC(=O)N[C@H]1[C@H]([C@H](O)[C@H](O)CNC(=O)c2cc(C)c(O)c(C)c2)O[C@@](CCN2CCOC[C@@]23CCN(C(=O)N2CCCC2)C3)(C(=O)O)C[C@@H]1O [A-062]
- EC50 [1]: 833 nM
- DSF (dTmD) [2]: 7.2

SMILES: CC(=O)N[C@H]1[C@H]([C@H](O)[C@H](O)CNC(=O)c2cc(C)c(O)c(C)c2)O[C@@](CCN2CCOC[C@@]23CCN(C(=O)N(C)Cc2ccccc2)C3)(C(=O)O)C[C@@H]1O [A-063]
- EC50 [1]: 323 nM
- DSF (dTmD) [2]: 6.3

SMILES: CC(=O)N[C@H]1[C@H]([C@H](O)[C@H](O)CNC(=O)c2cc(C)c(O)c(C)c2)O[C@@](CCN2CCOC[C@@]23CCN(C(=O)N(C)C)C3)(C(=O)O)C[C@@H]1O [A-064]
- EC50 [1]: 3500 nM
- DSF (dTmD) [2]: 3.5

SMILES: CC(=O)N[C@H]1[C@H]([C@H](O)[C@H](O)CNC(=O)c2cc(C)c(O)c(C)c2)O[C@@](CCN2CCOC[C@@]23CCN(C(=O)N2CCC(F)(F)CC2)C3)(C(=O)O)C[C@@H]1O [A-065]
- EC50 [1]: 739 nM
- DSF (dTmD) [2]: 6.1

SMILES: CCN(CC)C(=O)N1CC[C@@]2(COCCN2CC[C@]2(C(=O)O)C[C@H](O)[C@@H](NC(C)=O)[C@H]([C@H](O)[C@H](O)CNC(=O)c3cc(C)c(O)c(C)c3)O2)C1 [A-066]
- EC50 [1]: 156 nM
- DSF (dTmD) [2]: 8.4

SMILES: CC(=O)N[C@H]1[C@H]([C@H](O)[C@H](O)CNC(=O)c2cc(C)c(O)c(C)c2)O[C@@](CCN2CCOC[C@@]23CCN(C(=O)C2CC4(C2)CC(F)(F)C4)C3)(C(=O)O)C[C@@H]1O [A-069]
- EC50 [1]: 123 nM
- DSF (dTmD) [2]: 8.3

SMILES: CC(=O)N[C@H]1[C@H]([C@H](O)[C@H](O)CNC(=O)c2cc(C)c(O)c(C)c2)O[C@@](CCN2CCOC[C@@]23CCN(C(=O)C2CCCCC2(F)F)C3)(C(=O)O)C[C@@H]1O (stereo partly shown) [A-070]
- EC50 [1]: 31 nM
- DSF (dTmD) [2]: 12.0

SMILES: CC(=O)N[C@H]1[C@H]([C@H](O)[C@H](O)CNC(=O)c2cc(C)c(O)c(C)c2)O[C@@](CCN2CCOC[C@@]23CCN(C(=O)C2(C)CCCCC2)C3)(C(=O)O)C[C@@H]1O [A-071]
- EC50 [1]: 41 nM
- DSF (dTmD) [2]: 11.0

SMILES: CC(=O)N[C@H]1[C@H]([C@H](O)[C@H](O)CNC(=O)c2cc(C)c(O)c(C)c2)O[C@@](CCN2CCOC[C@@]23CCN(C(=O)C=C(C)C)C3)(C(=O)O)C[C@@H]1O [A-078]
- EC50 [1]: 115 nM
- DSF (dTmD) [2]: 9.4

SMILES: CC(=O)N[C@H]1[C@H]([C@H](O)[C@H](O)CNC(=O)c2cc(C)c(O)c(C)c2)O[C@@](CCN2CCOC[C@@]23CCN(C(=O)NCc2ccccc2)C3)(C(=O)O)C[C@@H]1O [A-079]
- EC50 [1]: 152 nM
- DSF (dTmD) [2]: 9.1

SMILES: CC(=O)N[C@H]1[C@H]([C@H](O)[C@H](O)CNC(=O)c2cc(C)c(O)c(C)c2)O[C@@](CCN2CCOC[C@@]23CCN(C(=O)C2CC(C)(C)C2)C3)(C(=O)O)C[C@@H]1O [A-080]
- EC50 [1]: 68 nM
- DSF (dTmD) [2]: 10.2

SMILES: CC(=O)N[C@H]1[C@H]([C@H](O)[C@H](O)CNC(=O)c2cc(C)c(O)c(C)c2)O[C@@](CCN2CCOC[C@@]23CCN(C(=O)C2CC2)C3)(C(=O)O)C[C@@H]1O [A-096]
- EC50 [1]: 454 nM
- DSF (dTmD) [2]: 7.6

SMILES: CC(=O)N[C@H]1[C@H]([C@H](O)[C@H](O)CNC(=O)c2cc(C)c(O)c(C)c2)O[C@@](CCN2CCOC[C@@]23CCN(C(=O)C(C)(C)C)C3)(C(=O)O)C[C@@H]1O [A-097]
- EC50 [1]: 430 nM
- DSF (dTmD) [2]: 8.25

SMILES: CC(=O)N[C@H]1[C@H]([C@H](O)[C@H](O)CNC(=O)c2cc(C)c(O)c(C)c2)O[C@@](CCN2CCOC[C@@]23CCN(C(=O)C2(c4ccccc4)CC2)C3)(C(=O)O)C[C@@H]1O [A-098]
- EC50 [1]: 685 nM
- DSF (dTmD) [2]: 6.9

SMILES: CC(=O)N[C@H]1[C@H]([C@H](O)[C@H](O)CNC(=O)c2cc(C)c(O)c(C)c2)O[C@@](CCN2CCOC[C@@]23CCN(C(=O)c2ccc(C)cc2)C3)(C(=O)O)C[C@@H]1O [A-099]
- EC50 [1]: 342 nM
- DSF (dTmD) [2]: 7.3

SMILES: CC(=O)N[C@H]1[C@H]([C@H](O)[C@H](O)CNC(=O)c2cc(C)c(O)c(C)c2)O[C@@](CCN2CCOC[C@@]23CCN(C(=O)C2(C)COC2)C3)(C(=O)O)C[C@@H]1O [A-100]
- EC50 [1]: 2340 nM
- DSF (dTmD) [2]: 5.6

SMILES: CC(=O)N[C@H]1[C@H]([C@H](O)[C@H](O)CNC(=O)c2cc(C)c(O)c(C)c2)O[C@@](CCN2CCOC[C@@]23CCN(C(=O)c2ccccc2)C3)(C(=O)O)C[C@@H]1O [A-101]
- EC50 [1]: 921 nM
- DSF (dTmD) [2]: 7.4

SMILES: CC(=O)N[C@H]1[C@H]([C@H](O)[C@H](O)CNC(=O)c2cc(C)c(O)c(C)c2)O[C@@](CCN2CCOC[C@@]23CCN(C(=O)C2(C(F)(F)F)CCCCC2)C3)(C(=O)O)C[C@@H]1O [A-102]
- EC50 [1]: 397 nM
- DSF (dTmD) [2]: 7.5
